Data taken from patent publication EP1370276B1, “INTERCELLULAR COMMUNICATION FACILITATING COMPOUNDS AND THEIR MEDICAL USE” (Zealand Pharma A/S, priority 2001, dated 2002).

Tests used:
[1] = tested on: human osteoblastic cells; test: Intercellular calcium waves after mechanical stimulation, human osteoblastic cells; type: cell-based
Method: (§1) Human osteblast cells (hOB): Cells were isolated from human bone marrow obtained by puncture of the posterior iliac spine of healthy volunteers (aged 20-36): 10-15 ml marrow material was collected in 15 ml PBS+Ca,Mg (Life Technologies, Cat.No. 14040) with 100 U/ml Heparin (Sigma, Cat.No. H-3149). The mononuclear fraction of the marrow was isolated on a Lymphoprep gradient (Nycomed Pharma, Cat.No. 1001967), by centrifugation at 2200 rpm for 30 min. After harvesting, the mononuclear fraction was washed once with culture medium and centrifuged at 1800 rpm for 10 min. Subsequently cells were counted and plated in culture medium at 8x10^6 cells/100 mm dish. hOB medium (all reagents obtained from Life Technologies): MEM w/o Phenol Red w/ Glutamax (Cat.No. 041-93013) supplemented with 10% heat inactivated fetal calf serum (Cat.No. 10106) and 0.1% Penicillin/Streptomycin (Cat.No. 15140). Medium was changed the following day and the cells were cultured at 37°C in 5%CO2 with medium change every 7 days. After 3-4 weeks of culture the cells had reached 70% confluence. The medium was then supplemented with 100 nM Dexamethasone (Sigma, Cat.No. D-4902) for 7 days. Cells were then plated for video imaging experiments: a 25 mm #1 glass coverslip was
placed in a 35 mm dish (or each well of a 6-well multidish), cells were plated at 2.5×10^5 cells/coverslip and cultured for 2-3 days before use. […]

[2] = tested on: alkaline phosphatase (ALP) activity of human osteoblasts; test: Alkaline phosphatase assay in human osteoblasts; type: cell-based
Method: as §1, with “The medium was then supplemented with 100 nM Dexamethasone (Sigma, Cat.No. D-4902) for 7 days. Cells were then plated for video imaging experiments: a 25 mm #1 glass coverslip was” left out
• Day 1: Cells were plated in 96-well plates at a conc. of 8000 cells/well (hOB) or 3000 cells/well (ROS) in 200 µl normal culture medium. • Day 2: Medium was changed on the cells. • Day 4: (Day 3 for ROS): Cells were washed with 200 µl MEM, 0.1% BSA (Sigma, Cat.No. A-9418). […] Absorbance was measured using a plate reader at 405 nm.

[3] = tested on: calcium-induced arrythmias; test: Calcium-induced arrhythmia model in mice (time to 2nd degree AV-block); type: in vivo; details: mouse, in vivo
Method: The antiarrhythmic effects of compounds of this invention were tested in an in vivo model of calcium-induced arrythmias according to the model of Lynch et al. ^[37]. […]. Commercial solutions of hypnorm and midazolam were diluted 1:1 in distilled water and one part diluted Hypnorm® is mixed with one part diluted midazolam.
The anaesthesia was induced by s.c. administration in a dose of […]. An i.v. cannula was inserted into the tail vein. The lead II ECG signal was recorded continuously by positioning of a stainless steel ECG electrodes on the right forelimb and on the left hind limb. The ground electrode was placed on the right hind limb. The signal was amplified (x 5.000-10.000) and filtered (0.1-150 Hz) via a Hugo Sachs Electronic model 689 ECG module. The analogue signal was digitised via a 12 bit data acquisition board (Data Translation model DT321) and sampled at 1000 Hz using the Notocord HEM 3.1 software for Windows NT. After a 10-min equilibration period, the test sample of drug was injected into the tail vein. Mice pre-treated with vehicle were tested as a measure of the control level in untreated animals. The injection volume was 100 µl in all experiments. Infusion of CaCl2 (30 mg/ml, 0.1 ml/min ≈ 100 mg/kg/min (calciumchlorid-2-hydrat, Riedel-de Haën, Germany)) was started 3 min after i.v. administration of drug or vehicle. The time lag to onset of 2nd degree AV-block was determined as the time from the start of CaCl2 infusion until the first arrhythmic event occured. An event of 2nd degree AV-block was defined as intermittent failure of the AV conduction characterised by a P-wave without the concomitant QRS complex.
Responses were expressed relative to the time until 2nd degree AV-block occurred in vehicle treated mice.

[4] = tested on: human osteoblast; details: human osteoblast cultures and osteoblastic rat osteosarcoma cell lines; conference abstract; cited from earlier work

## Ac-D-Tyr-D-Pro-D-4Hyp-Gly-D-Ala-Gly-NH2 [Compound 2]
[1]; 10^-8 M, medium without glucose, after ATP desensitization (1.4 cells before)
  average number of cells in the calcium wave: 2.9 cells
[1]; 10^-8 mol/l, 10 minutes, after ATP desensitization (4.5 cells before)
  average number of cells in the calcium wave: 6.2 cells
[2]; 1 × 10^-13 to 1 × 10^-6, normal culture conditions, 4 days
  ALP activity: increased ALP activity at most of the concentrations tested
[2]; 5% O2, four days, 10^-11 to 10^-8 mol/l
  stimulation of ALP activity during hypoxia compared with normoxia: about 15%
[3]
  CaCl2 mice Score: 3
[4]
  hypoxia-induced decrease of dye transfer after Lucifer Yellow injections: completely reversed
